Values joined by “and” are separate entries in the source; they are usually repeats but may differ in a detail not shown here. Identical values can stand only once.
Experiments:
Assay type in all cases: cell-based
[1] = system: SARS-CoV-2 USA-WA1/2020 D614G pseudovirus
[2] = system: SARS-CoV-2 Brazil (Gamma: K417T/E484K/N501Y) pseudovirus
[3] = system: SARS-CoV-2 mutant (D614G) and variants of concern (VOC) pseudoviruses; conditions: read-out: IC50, range over all variant pseudoviruses

Cc1ccc2nc3s/c(=C/c4coc(-c5ccc(Cl)c(C(=O)O)c5)c4)c(=O)n3c2c1 [NBCoV35]
IC50 [1]: 266 nM and 195 nM | IC50 [2]: 292 nM and 506 nM

Cc1cc(C)c2nc3s/c(=C\c4ccc(-c5ccc(Cl)c(C(=O)O)c5)o4)c(=O)n3c2c1 [NBCoV37]
IC50 [1]: 311 nM and 157 nM | IC50 [3]: 82 to 267 nM and 42.5 to 311 nM

Cc1cc2nc3s/c(=C/c4ccc(-c5cccc(C(=O)O)c5)o4)c(=O)n3c2cc1C [NBCoV63]
IC50 [1]: 42.5 nM and 40.8 nM | IC50 [2]: 45.5 nM and 77.5 nM | IC50 [3]: 34 to 96 nM and 26 to 105 nM

O=C(O)c1cc(-c2ccc(/C=c3\sc4nc(=O)c5c6c(sc5n4c3=O)CCCC6)o2)ccc1Cl [NBCoV36]
IC50 [3]: 181 to 1180 nM and 129 to 332 nM

From paper PMC10141620 (Viruses, 2023)
